In patent US11236086B2, “Substituted pyrrolopyridines as inhibitors of activin receptor-like kinase” (BLUEPRINT MEDICINES CORPORATION, priority 2017, dated 2022):

Tests used:
human ALK2 R206H = target: T1, human ALK2 R206H (Homo sapiens, UniProt Q04771, R206H); assay: Cell-based ALK2-R206H cell activity assay (Smad1-Ser463/Ser465 phosphorylation by AlphaLISA in HEK293-ALK2-R206H cells); conditions: phospho-Smad1 AlphaLISA, read-out: Cell Line (Cell Assay, IC50 class)
T1 construct: expressed in transfected cells; host or cells: HEK293 (ATCC CRL1573), lentivirus transduction, blasticidin selection
T1 sequence (Q04771 21-509 R206H): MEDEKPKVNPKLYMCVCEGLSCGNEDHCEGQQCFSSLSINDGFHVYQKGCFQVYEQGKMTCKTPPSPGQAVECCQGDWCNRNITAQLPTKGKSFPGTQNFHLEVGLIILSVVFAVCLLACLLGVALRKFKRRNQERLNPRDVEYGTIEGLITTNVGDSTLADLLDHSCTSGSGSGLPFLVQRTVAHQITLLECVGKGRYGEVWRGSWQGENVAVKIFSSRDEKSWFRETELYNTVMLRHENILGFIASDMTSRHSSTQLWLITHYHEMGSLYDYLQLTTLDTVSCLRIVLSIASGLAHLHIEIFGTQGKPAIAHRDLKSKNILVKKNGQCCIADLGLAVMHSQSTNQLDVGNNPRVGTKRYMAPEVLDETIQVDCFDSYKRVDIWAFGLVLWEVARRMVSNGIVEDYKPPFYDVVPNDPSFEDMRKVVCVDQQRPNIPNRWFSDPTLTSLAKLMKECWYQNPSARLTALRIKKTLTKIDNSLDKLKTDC
Method in brief: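 HEK293 stable line expressing human ALK2 R206H with C-terminal FLAG, plated overnight in serum-free medium. Cells were treated 2-3 h with compound over 10 3-fold doses, top 10 μM or 1 μM, in duplicate. Phospho-Smad1 Ser463/465 in lysate was read by AlphaLISA; IC50 was normalised to DMSO (0%) and 1 μM LDN193189 (100%).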

[1] = target: T2, ALK2R206H (mutant ALK2, N-terminally tagged with GST) (Homo sapiens, UniProt Q04771, R206H); assay: ALK binding assay (LANTHASCREEN TR-FRET competitive binding, displacement of Kinase Tracer 178); conditions: read-out: Binding Assay (IC50 class)
T2 construct: purchased Carna Bioscience or ThermoFisher 09-148 or PV6232
T2 sequence (Q04771 21-509 R206H): T1 sequence (Q04771 21-509 R206H)
Method in brief: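 GST-tagged ALK2 R206H (2-5 nM) mixed with Eu-anti-GST antibody (4-10 nM), Kinase Tracer 178 (50 nM, near its Kd) and compound titration (1% DMSO) in Kinase Buffer A, 30 min at room temperature. Tracer displacement read as TR-FRET ratio, normalized to controls; IC50 from 4-parameter fit.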

Compound | IC50 (human ALK2 R206H) [nM] | IC50 [1] [nM]
Cc1nc(-c2cc3c(N4CCN(C(=O)O[C@H]5C[C@H](F)C5)CC4)ccnc3[nH]2)sc1C [Compound 323] | ≤ 100 | ≤ 10
Cn1cc(-c2[nH]c3nccc(N4CCN(C(=O)O[C@@H]5CCOC5)CC4)c3c2Cl)cn1 [Compound 332] | 100 to 500 | ≤ 10
CCCC(C)C(=O)N1CCN(c2ccnc3[nH]c(-c4cnn(C)c4)cc23)CC1 (centres unmarked) [Compound 82] | > 500 | ≤ 10
O=C(C1CC1)N1CCN(c2ccnc3[nH]c(-c4ccc(OC5CCC5)cc4)cc23)CC1 [Compound 273] | 100 to 500 | ≤ 10
CC(C)OC(=O)N1CCN(c2ccnc3[nH]c(-c4cnn(C)c4)c(C#N)c23)CC1 [Compound 137] | ≤ 100 | ≤ 10
CC(C)N1CCC(c2ccc(-c3cc4c(N5CCN(C(=O)OC6COC6)CC5)ccnc4[nH]3)cc2)CC1 [Compound 467] | ≤ 100 | ≤ 10
CCOC(=O)N1CCN(c2ccnc3[nH]c(-c4ncc(C(C)C)s4)cc23)CC1 [Compound 177] | ≤ 100 | ≤ 10
Cn1ccc(-c2cc3c(N4CCN(C(=O)OC5COC5)CC4)ccnc3[nH]2)n1 [Compound 91] | 100 to 500 | ≤ 10
Cn1cc(-c2[nH]c3nccc(N4CCN(C(=O)OC5COC5)CC4)c3c2Cl)cn1 [Compound 276] | ≤ 100 | ≤ 10
O=C(OC1COC1)N1CCN(c2ccnc3[nH]c(-c4cn([C@H]5CCOC5)cn4)cc23)CC1 [Compound 359] | ≤ 100 | ≤ 10
COc1nc(-c2cc3c(N4CCN(C(=O)OC5COC5)CC4)ccnc3[nH]2)cs1 [Compound 259] | 100 to 500 | ≤ 10
CCOC(=O)N1CCN(c2ccnc3[nH]c(-c4ccc(C5(O)CCOCC5)cc4C#N)cc23)CC1 [Compound 441] | ≤ 100 | ≤ 10
Cc1nc(-c2cc3c(N4CCN(C(=O)OCC(F)F)CC4)ccnc3[nH]2)cs1 [Compound 212] | ≤ 100 | ≤ 10
CC1OCC1OC(=O)N1CCN(c2ccnc3[nH]c(-c4cnn(C)c4)cc23)CC1 (centres unmarked) [Compound 155] | > 500 | ≤ 10
N#Cc1ccc(-c2cc3c(N4CCN(C(=O)OC5COC5)CC4)ccnc3[nH]2)nc1 [Compound 192] | 100 to 500 | ≤ 10
Cn1cc(-c2cc3c(N4CCN(C(=O)C5CCCCC5)CC4)ccnc3[nH]2)cn1 [Compound 134] | 100 to 500 | ≤ 10
Cn1cnc(-c2[nH]c3nccc(N4CCN(C(=O)OC5COC5)CC4)c3c2Cl)c1 [Compound 274] | ≤ 100 | ≤ 10
Cn1cc(-c2cc3c(N4CCN(C(=O)OC5COC5)CC4)ccnc3[nH]2)c(F)n1 [Compound 179] | 100 to 500 | ≤ 10
CC(C)n1cnc(-c2[nH]c3nccc(N4CCN(C(=O)OC5COC5)CC4)c3c2C#N)c1 [Compound 350] | ≤ 100 | ≤ 10

Compound | IC50 (human ALK2 R206H) [nM] | IC50 [1] [nM]
CC(C)(C#N)c1ccc(-c2cc3c(N4CCN(C(=O)C5CC5)CC4)ccnc3[nH]2)cc1 [Compound 252] | ≤ 100 | ≤ 10
COC1CC(OC(=O)N2CCN(c3ccnc4[nH]c(-c5cnn(C)c5)cc34)CC2)C1 (centres unmarked) [Compound 233] | 100 to 500 | ≤ 10
COC1(c2ccc(-c3cc4c(N5CCN(C(=O)OC6COC6)CC5)ccnc4[nH]3)c(C#N)c2)CCOCC1 [Compound 472] | ≤ 100 | ≤ 10
Cc1csc(-c2cc3c(N4CCN(C(=O)OC5COC5)CC4)ccnc3[nH]2)n1 [Compound 173] | 100 to 500 | ≤ 10
O=C(C1CC1)N1CCN(c2ccnc3[nH]c(-c4ccc(C5CCN(C6COC6)CC5)cc4)cc23)CC1 [Compound 451] | ≤ 100 | ≤ 10
CC(C)n1cc(-c2cc3c(N4CCN(C(=O)[C@H]5CC[C@H](C#N)CC5)CC4)ccnc3[nH]2)cn1 [Compound 381] | ≤ 100 | ≤ 10
Cn1cc(-c2[nH]c3nccc(N4CCN(C(=O)OC5CCC5)CC4)c3c2C#N)cn1 [Compound 200] | ≤ 100 | ≤ 10
O=C(C1CC1)N1CCN(c2ccnc3[nH]c(-c4ccc(C5CCCOC5)cc4)cc23)CC1 (centres unmarked) [Compound 328] | ≤ 100 | ≤ 10
Cn1cc(-c2cc3c(N4CCN(C(=O)OC5COC5)CC4)ccnc3[nH]2)c(Cl)n1 [Compound 277] | ≤ 100 | ≤ 10
Cn1cc(-c2[nH]c3nccc(N4CCN(C(=O)C5CC5)CC4)c3c2C#N)cn1 [Compound 55] | 100 to 500 | ≤ 10
CC(C)n1cnc(-c2cc3c(N4CCN(C(=O)OC5COC5)CC4)ccnc3[nH]2)c1 [Compound 231] | ≤ 100 | ≤ 10
CC(C)(C#N)c1ccc(-c2cc3c(N4CCN(C(=O)OC5COC5)CC4)ccnc3[nH]2)nc1 [Compound 383] | ≤ 100 | ≤ 10
Cc1nc(-c2[nH]c3nccc(N4CCN(C(=O)OC5CCC5)CC4)c3c2C#N)cs1 [Compound 294] | ≤ 100 | ≤ 10
Cn1cc(-c2[nH]c3nccc(N4CCN(C(=O)O[C@H]5CCOC5)CC4)c3c2C#N)cn1 [Compound 289] | ≤ 100 | ≤ 10
Cn1ncc(-c2cc3c(N4CCN(C(=O)OC5COC5)CC4)ccnc3[nH]2)c1C#N [Compound 210] | 100 to 500 | ≤ 10
O=C(OC1COC1)N1CCN(c2ccnc3[nH]c(-c4cn[nH]c4C4CC4)cc23)CC1 [Compound 220] | > 500 | 10 to 50
O=C(COc1ccc(-c2cc3c(N4CCN(C(=O)C5CC5)CC4)ccnc3[nH]2)cc1)N1CCC1 [Compound 420] | 100 to 500 | ≤ 10
C[Si](C)(O)c1ccc(-c2cc3c(N4CCN(C(=O)C5CC5)CC4)ccnc3[nH]2)cc1 [Compound 287] | 100 to 500 | ≤ 10

More lines, now with the values ahead:

IC50 (human ALK2 R206H) [nM] | IC50 [1] [nM] | Compound
≤ 100 | ≤ 10 | CC(=O)N1CCc2nc(-c3cc4c(N5CCN(C(=O)OC6COC6)CC5)ccnc4[nH]3)sc2C1 [Compound 447]
≤ 100 | ≤ 10 | Cn1cnc(-c2cc3c(N4CCN(C(=O)OC5CC(F)(F)C5)CC4)ccnc3[nH]2)c1 [Compound 269]
≤ 100 | ≤ 10 | Cn1cc(-c2cc3c(N4CCN(C(=O)O[C@@H]5CCC5(F)F)CC4)ccnc3[nH]2)cn1 [Compound 263]
≤ 100 | ≤ 10 | CCOC(=O)N1CCN(c2ccnc3[nH]c(-c4cnn(C)c4)c(Cl)c23)CC1 [Compound 121]
100 to 500 | ≤ 10 | Cc1c(-c2cc3c(N4CCN(C(=O)OC5COC5)CC4)ccnc3[nH]2)cnn1C(C)C [Compound 305]
100 to 500 | ≤ 10 | CCOC(=O)N1CCN(c2ccnc3[nH]c(-c4cccnc4)cc23)CC1 [Compound 8]
≤ 100 | ≤ 10 | Cc1nc(-c2cc3c(N4CCN(C(=O)O[C@@H]5CCC5(F)F)CC4)ccnc3[nH]2)cn1C [Compound 326]
100 to 500 | ≤ 10 | Cc1c(-c2cc3c(N4CCN(C(=O)[C@H]5CC[C@H](C#N)CC5)CC4)ccnc3[nH]2)cnn1C [Compound 334]
100 to 500 | ≤ 10 | Cn1cc(-c2cc3c(N4CCN(C(=O)C5CC5)CC4)ccnc3[nH]2)cn1 [Compound 6]
100 to 500 | ≤ 10 | CCOC(=O)N1CCN(c2ccnc3[nH]c(-c4cnn(S(C)(=O)=O)c4)cc23)CC1 [Compound 281]
100 to 500 | ≤ 10 | Cn1cc(-c2cc3c(N4CCN(C(=O)OCCC(F)(F)F)CC4)ccnc3[nH]2)cn1 [Compound 292]
100 to 500 | ≤ 10 | Cn1cc(-c2cc3c(N4CCN(C(=O)OC5CC(F)(F)C5(F)F)CC4)ccnc3[nH]2)cn1 (centres unmarked) [Compound 399]
≤ 100 | ≤ 10 | Cc1nc(-c2cc3c(N4CCN(C(=O)O[C@@H]5CC(F)(F)C5(F)F)CC4)ccnc3[nH]2)cn1C [Compound 433]
≤ 100 | ≤ 10 | CC#Cc1c(-c2cnn(C)c2)[nH]c2nccc(N3CCN(C(=O)OCC)CC3)c12 [Compound 132]
100 to 500 | ≤ 10 | O=C(C1CC1)N1CCN(c2ccnc3[nH]c(-c4cnn(C5COC5)c4)cc23)CC1 [Compound 133]
≤ 100 | ≤ 10 | COC1(c2ccc(-c3cc4c(N5CCN(C(=O)OC6COC6)CC5)ccnc4[nH]3)nc2)CCN(C[C@@H](C)F)CC1 [Compound 479]
≤ 100 | ≤ 10 | Cc1nc(-c2cc3c(N4CCN(C(=O)OC5CC5)CC4)ccnc3[nH]2)cs1 [Compound 109]
100 to 500 | ≤ 10 | O=C(c1ccc(-c2cc3c(N4CCN(C(=O)C5CC5)CC4)ccnc3[nH]2)cc1)N1CCC1 [Compound 324]
